Results on 22 compounds are retold here after US20210369710A1, “MODULATORS OF MYC FAMILY PROTO-ONCOGENE PROTEIN” (Nalo Therapeutics, priority 2019, published 2021).

One assay deals with T1, MycC Protein (Homo sapiens, UniProt P01106).
T1 construct: endogenous in cells; host or cells: HL-60 or SKNBE2
The assay can be described thus: Degradation of MycC protein, Western blot band density in cells. As to conditions: HL-60 or SKNBE2 cells; 6 uL of compound (1 mM) added to 3 mL cells; 6 hours; Western blot band density (ImageJ). The format is cell-based. The method, then: (§1) In a T150 flask was plated either 2×10^6 of HL-60 (human leukemia cell line) or SKNBE2 (neuroblastoma cell line) cells in a total of 30 mL containing Roswell Park Memorial Institute (RPMI) 1640 Medium (Thermo Fisher, Cat. #11875-085), 10% Fetal Bovine Serum (FBS, Thermo Fisher: Cat. #10437-028), 1% Penicillin/streptomycin (Thermo Fisher: Cat. #10378016), and 1% Amophotericin B (Thermo Fisher, Cat. #15290026). The cells were split every 72 hours by reseeding the HL-60 or SKNBE2 cells, and the passage number was noted. It is noteworthy that cell cultures that were above 40 passages were not used, and most experiments were done with cells of less than 30 passages.
(§2) In a 6-well cell culture plate, a total of 3 mL of either 1×10^6 cells/mL of HL-60 or SKNBE2 cells were seeded, resulting in a total of 3×10^6 cells per well. To each well containing 3 mL of either HL-60 or SKNBE2 cell line was added 6 uL of MycN modulating compound (1 mM) and the resulting plate was shaken from left to right, and not swirled. After 6 hours, the cells were placed in a 15 mL falcon tube and spun at 500 Gs at 4° C. in a swinging bucket centrifuge. The medium was then carefully removed without disturbing the pellet. The pellet was then washed with 3 mLs of chilled phosphate buffered saline (PBS) and subjected to the spin cycle. PBS was then removed and the pellet was lysed in 200 uL of radioimmunoprecipitation (RIPA) lysis buffer (Thermo Fisher: Cat. #899000) that is supplemented with protease and phosphatase inhibitors (Thermo Fisher: Cat. #A32959). The cell lysate was then subjected to spinning in a centrifuge for 10 minutes at 13000G at 4° C. The supernatant was then carefully transferred to a fresh eppendorf tube without disturbing the pellet (˜180 uL). The protein concentration of the cell lysate was then determined by using a bicinchoninic acid (BCA assay) according to manufacturer's protocol (Thermo Fisher: Cat. #23227).
(§3) Cell lysate, approximately 25 ug-30 ug, was loaded per well in a 4-20% polyacrylamide gel (Biorad. Cat. #5671094). After running the dye front off of the gel, the gel was transferred to a nitrocellulose membrane (Biorad: Cat. #1704159) using the transblot turbo system (Biorad: Cat. #1704150) according to manufacturer's protocol. After transferring for 30 minutes, the membrane was blocked with 5% BSA for 1 hour at room temperature. The BSA was then washed off and the primary antibody of choice (1:500) was added, and the membrane was incubated with the primary antibody at 4° C. for overnight. The next morning, the primary antibody was removed and the membrane was washed with 1×-TBST for 10 minutes and repeated three more times. Following the last wash, a secondary antibody (Molecular Devices. Cat. #R8209 or R8208) was added at 1:5000 dilution and incubated for 1 hour at room temperature. Following the incubation with the secondary antibody, the membrane was washed with 1×-TBST for 10 minutes and repeated three more times. Following the last wash, the membrane was washed with de-ionized water twice and dried for at least two hours. Once the membrane is completely dry, the Molecular Devices Spectra Max western system was used to observe the bands. The western image was saved and the band density was measured with ImageJ software.

The next assay addresses T2, MycN Protein (Homo sapiens, UniProt P04198).
T2 construct: endogenous in cells; host or cells: HL-60 or SKNBE2
T2 sequence (P04198 1-464): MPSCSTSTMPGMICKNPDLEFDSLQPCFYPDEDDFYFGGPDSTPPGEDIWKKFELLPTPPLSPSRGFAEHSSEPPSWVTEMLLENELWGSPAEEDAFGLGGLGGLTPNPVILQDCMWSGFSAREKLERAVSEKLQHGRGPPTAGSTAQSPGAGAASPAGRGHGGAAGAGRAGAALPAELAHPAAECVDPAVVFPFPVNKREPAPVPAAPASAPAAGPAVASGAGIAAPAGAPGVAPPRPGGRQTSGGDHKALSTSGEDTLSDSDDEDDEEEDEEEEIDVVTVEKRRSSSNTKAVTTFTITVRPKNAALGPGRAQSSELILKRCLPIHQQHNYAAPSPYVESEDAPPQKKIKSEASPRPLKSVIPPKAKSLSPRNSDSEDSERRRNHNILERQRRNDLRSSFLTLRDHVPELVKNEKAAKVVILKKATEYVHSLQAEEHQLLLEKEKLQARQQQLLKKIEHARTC
The assay can be described thus: Degradation of MycN protein, Western blot band density in cells. As to conditions: HL-60 or SKNBE2 cells; 6 uL of compound (1 mM) added to 3 mL cells; 6 hours; Western blot band density (ImageJ). It is filed as cell-based. The method, then: as §1, §2, §3

T1 sequence (P01106 whole entry): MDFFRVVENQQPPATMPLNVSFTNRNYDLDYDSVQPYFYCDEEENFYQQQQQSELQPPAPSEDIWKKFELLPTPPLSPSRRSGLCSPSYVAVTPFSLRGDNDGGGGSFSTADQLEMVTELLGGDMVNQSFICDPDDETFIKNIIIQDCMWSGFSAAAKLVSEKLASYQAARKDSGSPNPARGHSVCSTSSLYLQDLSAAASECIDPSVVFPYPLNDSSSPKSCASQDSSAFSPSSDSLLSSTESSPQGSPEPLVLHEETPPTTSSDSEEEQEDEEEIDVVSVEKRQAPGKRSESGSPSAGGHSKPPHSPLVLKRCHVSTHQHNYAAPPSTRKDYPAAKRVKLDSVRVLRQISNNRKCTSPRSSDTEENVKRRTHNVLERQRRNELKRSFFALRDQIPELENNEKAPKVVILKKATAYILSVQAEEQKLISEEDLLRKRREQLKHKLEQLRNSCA

With `O=C(NC1COC1)N[C@H]1CC[C@H](Nc2nccc(Nc3cc(C4CCCC4)[nH]n3)n2)CC1` [Compound 46], the Dmax at 2 µM on MycC Protein was less than 20%; on MycN Protein, 20 to 49%.
The corresponding values for `O=C(NC1CC2(COC2)C1)N[C@H]1CC[C@H](Nc2nccc(Nc3cc(C4CCCC4)[nH]n3)n2)CC1` [Compound 47] are less than 20% and less than 20%.
As for `CC(=O)N1CC(NC(=O)N[C@H]2CC[C@H](Nc3nccc(Nc4cc(C5CCCC5)[nH]n4)n3)CC2)C1` [Compound 48, 1-(1-acetylazetidin-3-yl)-3-((1R,4R)-4-((4-((5-cyclopentyl-1H-pyrazol-3-yl)amino)pyrimidin-2-yl)amino)cyclohexyl)urea], the results for the Dmax at 2 µM at MycC Protein and on MycN Protein were 20 to 49% and less than 20%, respectively.
The corresponding values for `O=C(NC1CCC2(CC1)COC2)N[C@H]1CC[C@H](Nc2nccc(Nc3cc(C4CCCC4)[nH]n3)n2)CC1` [Compound 49, 1-((1R,4R)-4-((4-((5-cyclopentyl-1H-pyrazol-3-yl)amino)pyrimidin-2-yl)amino)cyclohexyl)-3-(2-oxaspiro[3.5]nonan-7-yl)urea] are less than 20% and less than 20%.
Taken in the same sequence, the figures for `O=C(N[C@H]1CC[C@H](Nc2nccc(Nc3cc(C4CCCC4)[nH]n3)n2)CC1)N[C@H]1C[C@H](c2ccccc2)C1` [Compound 52, 1-((1R,4R)-4-((4-((5-cyclopentyl-1H-pyrazol-3-yl)amino)pyrimidin-2-yl)amino)cyclohexyl)-3-(3-phenylcyclobutyl)urea] were 80 to 100% and 80 to 100%.
Taken in the same sequence, the figures for `N#Cc1cccc([C@H]2C[C@H](NC(=O)N[C@H]3CC[C@H](Nc4nccc(Nc5cc(C6CCOC6)[nH]n5)n4)CC3)C2)c1` (some centres unmarked) [Compound 53] were less than 20% and less than 20%.
As for `CS(=O)(=O)N1CC(NC(=O)N[C@H]2CC[C@H](Nc3nccc(Nc4cc(C5CCCC5)[nH]n4)n3)CC2)C1` [Compound 56], the greatest degradation seen (Dmax) at 2 µM at MycC Protein is 20 to 49%; on MycN Protein it was less than 20%.
The corresponding values for `CS(=O)(=O)[C@H]1C[C@H](NC(=O)N[C@H]2CC[C@H](Nc3nccc(Nc4cc(C5CCCC5)[nH]n4)n3)CC2)C1` [Compound 57] are 50 to 79% and less than 20%.
Consider `O=C(NC1CCC(Nc2nccc(Nc3cc(C4CCCC4)[nH]n3)n2)CC1)NC1CCCN(C2CC2)C1` [Compound 60, 1-((1R,4R)-4-((4-((5-cyclopentyl-1H-pyrazol-3-yl)amino)pyrimidin-2-yl)amino)cyclohexyl)-3-(1-cyclopropylpiperidine-3-yl)urea], for which the results for the Dmax at 2 µM on MycC Protein and at MycN Protein were 50 to 79% and less than 20%, respectively.
`O=C(NC1CCC(Nc2nccc(Nc3cc(C4CCCC4)[nH]n3)n2)CC1)NC1CCN(C2CC2)CC1` (centres unmarked) [Compound 63]: the Dmax at 2 µM fell in the range of 20 to 49% on MycC Protein and 50 to 79% on MycN Protein.
Taken in the same sequence, the figures for `O=C(NC1CCN(CCO)CC1)N[C@H]1CC[C@H](Nc2nccc(Nc3cc(C4CCCC4)[nH]n3)n2)CC1` [Compound 70, 1-((1R,4R)-4-((4-((5-cyclopentyl-1H-pyrazol-3-yl)amino)pyrimidin-2-yl)amino)cyclohexyl)-3-(1-(2-hydroxyethyl)piperidin-4-yl)urea] were 20 to 49% and less than 20%.
Taken in the same sequence, the figures for `O=C(NC1CCN(Cc2ccccn2)CC1)N[C@H]1CC[C@H](Nc2nccc(Nc3cc(C4CCCC4)[nH]n3)n2)CC1` [Compound 72, 1-((1R,4R)-4-((4-((5-cyclopentyl-1H-pyrazol-3-yl)amino)pyrimidin-2-yl)amino)cyclohexyl)-3-(1-(pyridin-2-ylmethyl)piperidin-4-yl)urea] were 20 to 49% and less than 20%.
Turning to `Cc1cc(Nc2ccnc(N[C@H]3CC[C@H](NC(=O)NC4CCN(Cc5ccccn5)CC4)CC3)n2)n[nH]1` [Compound 73, 1-((1R,4R)-4-((4-((5-methyl-1H-pyrazol-3-yl)amino)pyrimidin-2-yl)amino)cyclohexyl)-3-(1-(pyridin-2-ylmethyl)piperidin-4-yl)urea], the Dmax at 2 µM on MycC Protein and at MycN Protein was less than 20% each time.
For the compound `O=C(NC1CCN(Cc2ccccn2)CC1)N[C@H]1CC[C@H](Nc2nccc(Nc3cc(C4CCOC4)[nH]n3)n2)CC1` (stereo partly drawn) [Compound 74, 1-(1-(pyridin-2-ylmethyl)piperidin-4-yl)-3-((1R,4R)-4-((4-((5-(tetrahydrofuran-3-yl)-1H-pyrazol-3-yl)amino)pyrimidin-2-yl)amino)cyclohexyl)urea], the Dmax at 2 µM at MycC Protein is less than 20%; at MycN Protein, 20 to 49%.
Taken in the same sequence, the figures for `O=C(NC1CCN(Cc2ncccn2)CC1)N[C@H]1CC[C@H](Nc2nccc(Nc3cc(C4CCCC4)[nH]n3)n2)CC1` [Compound 75] were 20 to 49% and less than 20%.
Taken in the same sequence, the figures for `O=C(NC1CCC(Nc2nccc(Nc3cc(C4CCCC4)[nH]n3)n2)CC1)NC1CC2(C1)CN(C1CC1)C2` [Compound 77, 1-((1R,4R)-4-((4-((5-cyclopentyl-1H-pyrazol-3-yl)amino)pyrimidin-2-yl)amino)cyclohexyl)-3-(2-cyclopropyl-2-azaspiro[3.3]heptan-6-yl)urea] were 20 to 49% and less than 20%.
Taken in the same sequence, the figures for `O=C(NC1CCC(Nc2nccc(Nc3cc(C4CCCC4)[nH]n3)n2)CC1)NC1CCN(C2CC2)C1` [Compound 79, 1-((1R,4R)-4-((4-((5-cyclopentyl-1H-pyrazol-3-yl)amino)pyrimidin-2-yl)amino)cyclohexyl)-3-(1-cyclopropylpyrrolidin-3-yl)urea] were 20 to 49% and less than 20%.
In the case of `[H]/N=C(\Nc1cccc(C(F)(F)F)c1)N[C@H]1CC[C@H](Nc2nccc(Nc3cc(C4CCCC4)[nH]n3)n2)CC1` [Compound 81, 1-((1R,4R)-4-((4-((5-cyclopentyl-1H-pyrazol-3-yl)amino)pyrimidin-2-yl)amino)cyclohexyl)-3-(3-(trifluoromethyl)phenyl)guanidine], the figures for the maximal degradation (Dmax) at 2 µM on MycC Protein and at MycN Protein were 80 to 100% and less than 20%, respectively.
For `C/N=C(\Nc1cccc(C(F)(F)F)c1)N[C@H]1CC[C@H](Nc2nccc(Nc3cc(C4CCCC4)[nH]n3)n2)CC1` [Compound 83], the maximal degradation (Dmax) at 2 µM on MycC Protein and on MycN Protein was less than 20% throughout.
Consider `FC(F)(F)C/N=C(\NC1CCOCC1)N[C@H]1CC[C@H](Nc2nccc(Nc3cc(C4CCCC4)[nH]n3)n2)CC1` [Compound 84], for which the Dmax at 2 µM at MycC Protein and at MycN Protein was less than 20% throughout.
In the case of `N#Cc1cccc(NC(=N)N[C@H]2CC[C@H](Nc3nccc(Nc4cc(C5CCCC5)[nH]n4)n3)CC2)c1` [Compound 87, 1-(3-cyanophenyl)-3-((1R,4R)-4-((4-((5-cyclopentyl-1H-pyrazol-3-yl)amino)pyrimidin-2-yl)amino)cyclohexyl)guanidine], at MycC Protein, the “% Degradation of MycC” value is reported as “** (**: degradation 20-49%)”. In addition, on MycN Protein, the “% Degradation of MycN” value was “** (**: degradation 20-49%)”.
In the case of `O=C(Nc1cccc(C(F)(F)F)c1)N[C@H]1C[C@H](Nc2nccc(Nc3cc(C4CCCC4)[nH]n3)n2)C1` [Compound 96], the Dmax at 2 µM at MycC Protein and on MycN Protein was 20 to 49% each time.
